Consider three molecules from patent publication US20110076272A1, “THERAPEUTIC METHODS AND COMPOSITIONS” (priority 2009, published 2011).

One assay relates to MCF7 cells. Kind of assay: Induction of EMT-like phenotype by LOXL2-containing conditioned media (rhodamine-phalloidin staining). Format: cell-based. The conditions noted are these: MDA-MB231 or Hs-578t conditioned media; BAPN up to 2 mM. The procedure: Cells were seeded at 80% confluency, in an 8-chambered slide, 24 hours prior to the day of staining. After 24 hours, media was aspirated and the chambers were washed with PBS. Cells were then fixed with 4% Parafomaldehyde (PFA) for 20 minutes at room temperature and then permeabilized with 0.5% Saponin (JT Baker, Phillipsburg, N.J.) for 5 minutes at room temperature. Cells were then stained for 15 minutes at room temperature with a 1:100 dilution of rhodamine phalloidin (Invitrogen, Carlsbad, Calif.). Slides were mounted with Vectashield (Vector Laboratories, Burlingame, Calif.).
MCF7 or SW620 cells were seeded at 50,000 cells per well of an 8-chambered culture slide in HGDMEM (high-glucose Dulbecco's modified Eagle's medium containing 4.5 g/l glucose)+10% FBS, 2 mM L-glutamine, 24 hours prior to being exposed to conditioned medium (CM). 500 uls of fresh conditioned medium from MDA MB 231 cells was added to the chambers containing MCF7 cells. The cells were incubated with the CM for 48-96 hours. Conditioned medium from MCF7 or SW620 cells was used as a negative control. After 48-96 hours incubation with CM, the cells were stained with rhodamine-phalloidin as described above.

In assay [1] the test system is purified recombinant human LOXL2. Kind of assay: Amplex Red assay of LOXL2 enzymatic activity. Format: biochemical. How it is done:
A mouse anti-human LOXL2 antibody (AB0023) was obtained by immunization with full-length LOXL2 protein and purified by SEC-HPLC (Tosoh TSKGEL G3000SWXL 7.8×300). Analytical size exclusion chromatography was used to assess antibody stability and purity. Purified AB0023 was run on SDS-PAGE Coomassie (Invitrogen BT 4-12% Gels) reducing and non-reducing gels to assess purity. Potency was examined by ELISA to determine Kd, and effect on LOXL2 enzymatic activity was determined using an Amplex Red Assay (Molecular Probes/Invitrogen, Carlsbad, Calif.). Antibody concentration was measured by absorbance at 280 nm using an Extinction Coefficient Abs 0.1% of 1.4. Identity was assayed by isoelectric focusing (Invitrogen pH 3-10 IEF Gels). For safety analysis, endotoxin levels were measured at a sensitivity range of 0.01-1 EU/ml (Charles River EndoSafe PTS).

The subject of assay [2] is MDA-MB-435 established primary tumors. Briefly: MDA-MB-435 established primary tumor xenograft model. Format: in vivo, mouse. The conditions noted are these: independent study; AB0023 5 mg/kg twice per week, BAPN 100 mg/kg daily.
Assay [3] shares this test system. The assay is described as above. It counts as in vivo, mouse. On the set-up: reduction in activated TAFs assessed by aSMA signal / reduction in VEGF signal versus vehicle-treated tumors / reduction in SDF-1/CXCL12 signal / reduction in LOXL2 signal: concentration or dose not given beside the values. How it is done:
To provide growing tumor tissue stock for subsequent orthotopic implantation, five- to six-week-old nude mice (NCr nu/nu) were injected subcutaneously with 2×10^6 MDA-MB-435-GFP cells (Anticancer, Inc., San Diego, Calif.) on the right flank. For this purpose, cultures of MDA-MB-435-GFP cells were harvested and dissociated by trypsinization, washed three times with cold serum-containing medium, and then kept on ice until injection. Cells were injected into the subcutaneous space of the flank of the animal in a total volume of 0.1 ml, within 30 min of harvesting. The nude mice were sacrificed to harvest tumor tissue 4 to 6 weeks after tumor cell injection for surgical orthotopic implantation (SOI) of tumor fragments.
Tumor pieces (˜1 mm^3), extracted from subcutaneously-growing GFP-expressing breast tumors, were implanted by surgical orthotopic implantation (SOI) on the breast of female nude mice (NCr nu/nu). Treatments with AB0023 (anti-LOXL2 monoclonal antibody), M64 (anti-LOX monoclonal antibody) and vehicle (all via intraperitoneal injection) and with Taxotere (by intravenous injection) were initiated when the average primary tumor volume reached 75 mm^3. Mice were administered the antibodies at a dose of 30 mg/kg twice a week for 28 days and Taxotere, at 10 mg/kg, was administered once a week for 3 weeks.
Body weight and tumor size were recorded weekly. At the conclusion of the study, mice were sacrificed by cervical dislocation after being anesthetized with carbon dioxide. Primary breast tumors were imaged, harvested, cut in half symmetrically and snap-frozen for histological and immunohistochemical analyses.
The solutions used for the immunohistochemistry (IHC) protocols were obtained from Biocare Medical (Concord, Calif.) unless otherwise stated. All procedures were performed at room temperature. Slides were fixed with 4% PFA for 10 minutes and were subsequently treated with Peroxidazed-1 (Biocare Medical, Concord, Calif.) for 5 minutes. Then, the slides were background blocked with SNIPER (Biocare Medical, Concord, Calif.) for 10 minutes. Primary antibody (2-5 ug/ml final concentration) was diluted in Da Vinci Green Universal Diluent and applied to slides for 30 minutes. Slides were then rinsed in PBS-Tween-20. The Mach2 polymer kit was used for antigen detection by adding rabbit probe for 30 minutes. DAB chromagen was added to the slides for 3-5 minutes, then slides were rinsed once with deionized water. The slides were then counter-stained with hematoxylin, followed by dehydration with graded alcohol. The slides were mounted with entellan mounting medium (Electron Microscopy Sciences, Hatfield, Pa.).

In assay [4] the target is T1, human lysyl oxidase-like 2 (LOXL2) (human, UniProt Q9Y4K0 26-774).
T1 sequence (looked up): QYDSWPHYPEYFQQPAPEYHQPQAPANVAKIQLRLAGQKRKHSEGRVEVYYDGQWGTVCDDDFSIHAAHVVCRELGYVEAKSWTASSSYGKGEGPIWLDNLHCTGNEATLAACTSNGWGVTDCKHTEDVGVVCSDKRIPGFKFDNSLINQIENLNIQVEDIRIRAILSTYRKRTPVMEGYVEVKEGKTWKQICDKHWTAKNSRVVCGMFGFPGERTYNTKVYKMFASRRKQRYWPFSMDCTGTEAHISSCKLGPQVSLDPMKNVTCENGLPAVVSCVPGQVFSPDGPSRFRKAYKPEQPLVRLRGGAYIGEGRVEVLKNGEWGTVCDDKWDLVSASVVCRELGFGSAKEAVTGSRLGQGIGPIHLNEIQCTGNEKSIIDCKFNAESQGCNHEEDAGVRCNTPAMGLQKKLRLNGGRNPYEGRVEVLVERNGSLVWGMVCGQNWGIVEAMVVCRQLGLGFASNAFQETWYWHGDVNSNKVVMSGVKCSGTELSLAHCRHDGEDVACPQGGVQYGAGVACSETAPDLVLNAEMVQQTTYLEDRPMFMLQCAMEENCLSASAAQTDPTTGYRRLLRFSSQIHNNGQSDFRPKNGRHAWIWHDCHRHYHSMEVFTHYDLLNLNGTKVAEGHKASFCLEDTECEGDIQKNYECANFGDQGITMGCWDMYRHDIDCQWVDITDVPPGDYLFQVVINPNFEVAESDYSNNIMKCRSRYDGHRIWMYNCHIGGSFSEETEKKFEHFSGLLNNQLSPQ
Kind of assay: cell-based or functional assay.

In another assay the target is T2, lysyl oxidase (LOX) (UniProt P28300 169-417, limits assumed).
T2 construct: Member of 'other lysyl oxidase-type enzymes'
T2 sequence (looked up): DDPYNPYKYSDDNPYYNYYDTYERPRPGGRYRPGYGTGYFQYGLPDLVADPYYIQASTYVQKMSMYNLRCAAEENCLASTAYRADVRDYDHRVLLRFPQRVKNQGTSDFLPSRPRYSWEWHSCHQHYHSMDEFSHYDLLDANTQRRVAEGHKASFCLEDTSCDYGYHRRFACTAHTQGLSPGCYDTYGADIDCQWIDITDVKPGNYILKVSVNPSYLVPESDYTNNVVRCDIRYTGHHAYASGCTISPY
Kind of assay: Western blot probed with AB0023 [Cont. 2) panel m].

Assay [5] concerns the target T3, lysyl oxidase-like 3 (LOXL3) (UniProt P58215 26-753, limits assumed).
T3 construct: Member of 'other lysyl oxidase-type enzymes'; also called LOR-2
T3 sequence (looked up): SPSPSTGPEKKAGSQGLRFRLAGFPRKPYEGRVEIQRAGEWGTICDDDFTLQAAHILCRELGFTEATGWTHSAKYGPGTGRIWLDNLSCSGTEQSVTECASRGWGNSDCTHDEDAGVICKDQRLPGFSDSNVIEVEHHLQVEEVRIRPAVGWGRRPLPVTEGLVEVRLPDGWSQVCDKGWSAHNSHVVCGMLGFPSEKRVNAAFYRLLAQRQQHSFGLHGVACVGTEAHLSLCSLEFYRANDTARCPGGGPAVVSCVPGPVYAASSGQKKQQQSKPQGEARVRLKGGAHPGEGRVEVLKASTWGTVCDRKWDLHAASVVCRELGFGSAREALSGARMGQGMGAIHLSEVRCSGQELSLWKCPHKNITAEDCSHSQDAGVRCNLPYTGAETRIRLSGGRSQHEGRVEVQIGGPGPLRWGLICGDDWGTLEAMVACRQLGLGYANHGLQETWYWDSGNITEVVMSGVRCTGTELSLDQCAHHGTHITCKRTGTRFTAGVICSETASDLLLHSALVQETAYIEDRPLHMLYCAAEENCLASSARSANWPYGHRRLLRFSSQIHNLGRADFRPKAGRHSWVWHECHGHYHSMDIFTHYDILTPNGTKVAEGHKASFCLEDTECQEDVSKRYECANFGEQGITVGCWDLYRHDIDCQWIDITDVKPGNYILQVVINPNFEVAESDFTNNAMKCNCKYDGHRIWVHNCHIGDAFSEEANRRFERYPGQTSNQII
Kind of assay: Western blot probed with AB0023 [Cont. 2) panel m].

The target of assay [6] is T4, lysyl oxidase-like 4 (LOXL4) (UniProt Q96JB6 25-756, limits assumed).
T4 construct: Member of 'other lysyl oxidase-type enzymes'
T4 sequence (looked up): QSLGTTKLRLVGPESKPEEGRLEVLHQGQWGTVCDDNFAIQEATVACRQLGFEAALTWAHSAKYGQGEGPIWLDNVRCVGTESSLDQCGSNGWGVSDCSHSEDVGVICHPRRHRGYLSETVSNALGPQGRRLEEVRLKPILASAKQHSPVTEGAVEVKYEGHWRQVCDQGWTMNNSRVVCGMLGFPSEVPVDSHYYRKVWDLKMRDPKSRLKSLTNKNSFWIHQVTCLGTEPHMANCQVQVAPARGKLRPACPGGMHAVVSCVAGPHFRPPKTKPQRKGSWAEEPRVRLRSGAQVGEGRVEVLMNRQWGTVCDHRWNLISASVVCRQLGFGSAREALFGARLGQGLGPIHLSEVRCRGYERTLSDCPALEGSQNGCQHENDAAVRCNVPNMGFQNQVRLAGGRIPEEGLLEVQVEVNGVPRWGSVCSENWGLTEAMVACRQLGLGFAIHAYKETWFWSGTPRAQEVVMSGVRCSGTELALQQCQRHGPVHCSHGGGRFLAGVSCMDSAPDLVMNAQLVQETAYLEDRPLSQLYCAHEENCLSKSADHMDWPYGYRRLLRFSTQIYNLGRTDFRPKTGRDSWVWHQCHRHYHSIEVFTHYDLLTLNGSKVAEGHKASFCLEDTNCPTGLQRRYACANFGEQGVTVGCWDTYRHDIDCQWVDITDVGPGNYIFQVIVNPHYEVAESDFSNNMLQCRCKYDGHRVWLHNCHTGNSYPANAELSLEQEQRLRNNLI
Kind of assay: Western blot probed with AB0023 [Cont. 2) panel m].

In the case of `N#CCCN` [BAPN, beta-aminoproprionitrile, reference compound], the “remodeling of the actin cytoskeleton induced by LOXL2-containing conditioned media” value with MCF7 cells was “not inhibited”. In addition, the “mode of inhibition of LOXL2” value in assay [1] is given as “competitive inhibitor”. For the same molecule, in assay [1] (in vitro), the “inhibition of LOXL2 enzymatic activity” value is recorded as “inhibited”. For the same molecule, the “IC50 for inhibition of LOXL2 (in words)” value in assay [1] (in vitro, FIG. 8 panel D) is on record as “low nanomolar”. In assay [2], the “reduction in tumor vasculature, CD31 signal” value was “no reduction” and the “reduction in tumor volume after 46 days” value is given as 19%.

With `CC(=O)O[C@@]12CO[C@@H]1C[C@H](O)[C@@]1(C)C(=O)[C@H](O)C3=C(C)[C@@H](OC(=O)[C@H](O)[C@@H](NC(=O)OC(C)(C)C)c4ccccc4)C[C@@](O)([C@@H](OC(=O)c4ccccc4)[C@H]21)C3(C)C` [Taxotere, reference compound], the “levels of Beclin-1 (autophagy) in tumor cells” value in assay [3] (mouse, in vivo) is given as “increased”. In addition, in assay [3] (tumors harvested at day 39), the “reduction in Sirius red staining (crosslinked collagen, desmoplasia)” value is on record as “No significant differences”; the “reduction in activated TAFs assessed by aSMA signal” value was “No significant differences”; the “reduction in tumor vasculature, CD31 signal” value was 43%.

B1: anti-LOXL2 monoclonal antibody AB0023 (antibody, V domains shown)
VH: QVQLQQSGAELVRPGTSVKVSCKASGYAFTYYLIEWVKQRPGQGLEWIGVINPGSGGTNYNEKFKGKATLTADKSSSTAYMQLSSLTSDDSAVYFCARNWMNFDYWGQGTTLTVSS
VL: DIVMTQAAPSVSVTPGESVSISCRSSKSLLHSNGNTYLYWFLQRPGQSPQFLIYRMSNLASGVPDRFSGSGSGTAFTLRISRVEAEDVGVYYCMQHLEYPYTFGGGTKLEIK
notes: Mouse monoclonal antibody from a hybridoma, raised against full-length LOXL2 and purified from ascites; also called mouse anti-human LOXL2 antibody; LOXL2-specific monoclonal antibody
B1: the “IC50, HUVEC tube formation assay, FIG. 4 Panel I (mean total tubule length)” value in assay [4] was 33.2 nM. Further, the “apparent IC50 for inhibition of purified LOXL2 enzymatic activity” value in assay [4] was around 30 nM. The binding result (in the assay with lysyl oxidase (LOX); in assay [5]; in assay [6]) was “no binding” throughout.
